Laboratory results: PubChem BioAssay AID1347042

Tested on: MutuI BL cells, EBV BHLF1 promoter luciferase, 48 h
Experiment: EBV lytic cycle activators, dose response, cell-based, MutuI Burkitt lymphoma, luciferase (AID 1347042)

EC50 | Compound
0.576 µM | COC(=O)c1sccc1NC(=O)N1CCc2c([nH]c3ccc(OC)cc23)C1c1ccc(C)cc1 (stereo not given)
0.108 µM | CCOC(=O)c1ccccc1NC(=O)N1CCc2c([nH]c3ccc(OC)cc23)C1c1ccc(C)cc1 (stereo not given)
0.158 µM | COC(=O)c1ccccc1NC(=O)N1CCc2c([nH]c3ccc(Cl)cc23)C1c1ccc(OC)cc1 (stereo not given)
0.17 µM | COc1ccccc1NC(=O)N1CCc2c([nH]c3ccc(Cl)cc23)C1c1ccc(C)cc1 (stereo not given)
0.113 µM | COc1ccc(C2c3[nH]c4ccc(Cl)cc4c3CCN2C(=O)Nc2ccc(OC)cc2OC)cc1 (stereo not given)
